Patent US8940775B2, “Use of derivatives of pentaphyrine as antimicrobial and disinfectant agents” (Universita' Degli Studi di Udine, priority 2010, dated 2015)
Values joined by “and” are separate entries in the source; they are usually repeats but may differ in a detail not shown here. Equal values may be shown once.

Experiments:
Format in all cases: cell-based
[1] = test system: E. hirae ATCC 10541; experiment: Photo-oxidation test, antibacterial activity on E. hirae; settings: PCCox 20 μM; 120 min of illumination with lamp B at 50 W/m2; preliminary tests
Description: The bacterial strains used in the photo-oxidation tests are S. aureus ATCC 6538 and E. hirae ATCC 10541. The bacterial culture in exponential phase is obtained by inoculation in 10 mL of Nutrient Broth No. 2 and incubation at 37° C. Next the culture is centrifuged for 15 minutes at 3200 rpm and the pellet is resuspended in PBS 0.01 M in order to obtain a bacterial concentration equal to about 10^8 CFU/mL (Abs600≈0.1). This suspension was used for the photo-oxidation tests in the conditions described hereunder. […]
(§1) The luminous intensity supplied by the light sources was evaluated by radiometer (DeltaOhm HD 2302.0 equipped with LP 471 RAD sensor).
(§2) The photo-oxidation tests were performed on a culture volume equal to 1 mL, using a plate with 48 wells with diameter of 1 cm and capacity of 1.5 mL. […] The intrinsic toxicity, i.e. the toxicity not induced by the light, of the PCCox was evaluated on bacterial cultures of S. aureus and E. hirae incubated for 60 minutes in the dark with various concentrations of PCCox: in FIG. 3 are reported the results obtained on S. aureus; similar results were obtained with E. hirae. […]
(§3) At each time interval, a volume of bacterial suspension of 100 μL is taken and is diluted in PBS 0.01 M using an optimum dilution factor for the bacterial culture. […] These samples are analysed at the end of the treatment. […]

[2] = test system: S. aureus; experiment: Intrinsic toxicity of PCCox in the dark on bacterial cultures; settings: no light activation
Description: FIG. 3. Toxicity test of the pentaphyrine PCCox evaluating the vitality of a bacterial culture of S. aureus incubated for 60 minutes in the dark with various concentrations of 20-(4-carboxyphenyl)-2,13-dimethyl-3,12-diethyl-[22] pentaphyrine (PCCox) (0.05 μM, 0.5 μM and 5 μM).
as §2, with “mL. The multi-well plate is positioned above a magnetic stirrer and under the light source. A volume of a 330 μM solution of PCCox in DMSO is added to the bacterial suspension in order to obtain various concentrations of the photosensitizer (0.05 μM, 0.5 μM, 5 μM and 20 μM).” for “mL.”
At each time interval, a volume of bacterial suspension of 100 μL is taken and is diluted in PBS 0.01 M using an optimum dilution factor for the bacterial culture. […] These samples are analysed at the end of the treatment. Each test is carried out at least in triplicate, and the survival data in terms of CFU/mL are expressed as the mean and standard deviation. […]

[3] = test system: Gram-positive bacterial population of the genus Enterococcus; experiment: Photo-oxidation test on primary effluent of a purification plant; settings: PCCox 20 μM
Description: FIG. 12. Photo-oxidation test for evaluating the antibacterial activity of the pentaphyrine PCCox (concentration of solution 20 μM) on a real sample, in this case primary effluent of a purification plant for treating municipal waste. The activity of PCCox was evaluated with respect to the Gram-positive bacterial population of the genus Enterococcus, which is present in the sample treated at a concentration equal to 10^4 CFU/mL. The test was carried out with a source of blue light (473 nm) at a luminous intensity equal to 50 W/m^2. The percentage survival of enterococci following treatment with PCCox, in the experimental conditions, is equal to 31%. […]
as §2, §3

[4] = test system: S. aureus ATCC 6538; experiment: Photo-oxidation test, antibacterial activity on S. aureus; settings: for Percentage bacterial load die-off: initial 10^8 CFU/ml S. aureus, 100 W lamp, 40 W/m^2
Description: The bacterial strains used in the photo-oxidation tests are S. aureus ATCC 6538 and E. hirae ATCC 10541. The bacterial culture in exponential phase is obtained by inoculation in 10 mL of Nutrient Broth No. 2 and incubation at 37° C. Next the culture is centrifuged for 15 minutes at 3200 rpm and the pellet is resuspended in PBS 0.01 M in order to obtain a bacterial concentration equal to about 10^8 CFU/mL (Abs600≈0.1). This suspension was used for the photo-oxidation tests in the conditions described hereunder.
The photo-oxidative treatment was carried out using various light sources: • Lamp A: 100 W incandescent lamp, able to irradiate the bacterial suspension with a fluence rate equal to 40 W/m^2. The […] component of the luminous radiation is removed by filtering the light through a layer of water equal to 0.5 cm; • Lamp B: blue LED lamp, with maximum emission at 473 nm, connected to a power supply that controls its fluence rate between 24 and 50 W/m^2; • Lamp C: lamp with blue LED, with maximum emission at 473 nm, with a fluence rate equal to 10 W/m^2; • Lamp D: lamp with red LED, with maximum emission at 635 nm, with a fluence rate equal to 10 W/m^2.
as §1
The photo-oxidation tests were performed on a culture volume equal to 1 mL, using a plate with 48 wells with diameter of 1 cm and capacity of 1.5 mL. The multi-well plate is positioned above a magnetic stirrer and under the light source. A volume of a 330 μM solution of PCCox in DMSO is added to the bacterial suspension in order to obtain various concentrations of the photosensitizer (0.05 μM, 0.5 μM, 5 μM and 20 μM). The solution is stirred by small magnetic anchors throughout the treatment. The intrinsic toxicity, i.e. the toxicity not induced by the light, of the PCCox was evaluated on bacterial cultures of S. aureus and E. hirae incubated for 60 minutes in the dark with various concentrations of PCCox: in FIG. 3 are reported the results obtained on S. aureus; similar results were obtained with E. hirae. The percentage of DMSO present in the culture treated never exceeds 6%. […] In FIG. 4 are reported the results obtained with E. hirae; similar results were obtained with S. aureus.
The duration of the treatment is different for S. aureus (15, 30 and 60 minutes) and E. hirae (60 and 120 minutes).
The influence of a step of incubation of the bacterial culture in the dark in the presence of the molecule was evaluated before the irradiation step. In FIG. 5 are reported the results obtained with S. aureus.
At each time interval, a volume of bacterial suspension of 100 μL is taken and is diluted in PBS 0.01 M using an optimum dilution factor for the bacterial culture. From each dilution, 100 μL of bacterial suspension is taken (1000 μL is taken from the samples of primary effluent), seeded in MSA medium for S. aureus and Mf-Enterococcus Selective Agar for E. hirae on Petri dishes and incubated in the dark at 37° C. for 18-24 hours. The same procedure is carried out for the control samples, used for testing the activity of PCCox in the dark and the vitality of the bacterial suspension, without photosensitizer, exposed to the light or incubated in the dark. These samples are analysed at the end of the treatment. Each test is carried out at least in triplicate, and the survival data in terms of CFU/mL are expressed as the mean and standard deviation. The percentage survival is calculated respect to the concentration of bacteria measured on the control sample exposed to the light, analysed at the end of the test.

CCC1=C(C)c2cc3nc(c(-c4ccc(C(=O)O)cc4)c4ccc(cc5nc(cc6ccc(cc1n2)[nH]6)C(CC)=C5C)[nH]4)C=C3 [PCCox, 20-(4-carboxyphenyl)-2,13-dimethyl-3,12-diethyl-[22] pentaphyrine]
die-off [1]: 4 log
bactericidal activity in the dark [2]: does not have bactericidal activity in the dark
percentage survival of enterococci ([3]; primary effluent, 10^4 CFU/mL, blue light 473 nm, 50 W/m^2): 31%
die-off ([3]; primary wastewater, in terms of E. hirae, blue light 50 W/m^2): up to 70%
Percentage bacterial load die-off ([4]; PCCox 0.05 μM, 15 min): 99.77%
Percentage bacterial load die-off ([4]; PCCox 0.05 μM, 30 min): 99.9% and 99.89%
bacterial load die-off ([4]; PCCox 0.05 μM, 30 min of treatment, lamp A): 3 log
Percentage bacterial load die-off ([4]; PCCox 0.05 μM, 60 min): 99.97%
Percentage bacterial load die-off ([4]; PCCox 0.5 μM, 15 min): 100%
Percentage bacterial load die-off ([4]; PCCox 0.5 μM, 30 min): 99.99%
Percentage bacterial load die-off ([4]; PCCox 0.5 μM, 60 min): 100%
Percentage bacterial load die-off ([4]; PCCox 5 μM, 15 min): 99.9988%
Percentage bacterial load die-off ([4]; PCCox 5 μM, 30 min): 100%
Percentage bacterial load die-off ([4]; PCCox 5 μM, 60 min): 100%
die-off ([4]; PCCox 5 μM, 60 min with lamp A (100 W, 40 W/m^2), initial load 10^11-10^13 CFU/ml): 10 log
die-off ([4]; PCCox 5 μM, blue LED, maximum emission 473 nm, fluence rate between 24 and 50 W/m^2): 10 log
bactericidal effect ([4]; PCCox 5 μM, lamp C blue LED at 10 W/m^2, 60 min of illumination, pre-incubation 1 h in the dark): 3 log
influence of incubation time on bactericidal efficiency ([4]; PCCox 5 μM, with or without pre-incubation in the dark for 1 h, blue light 24 W/m^2): not influenced in any way by the incubation time
initial bacterial load destroyed ([4]; PCCox 5 μM, within 15 min of exposure to the light, initial load 10^8-10^13 CFU/ml): 99.999%
bactericidal effect (phototoxic efficacy) ([4]; white light (lamp A, 40 W/m^2), after 15 min of irradiation): 5 log
